pIC50: −log10 of the molar value. “And” between values parts separate entries of the source, which are not always exact repeats. Identical values can stand only once.
How the values were obtained:
SfurOBP2 = SfurOBP2 (Sogatella furcifera, UniProt V5T759); test: biochemical; format: binding
Method in brief: (§1)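 K1-NPN came from titrating 2.0 µM protein (50 mM Tris-HCl, pH 7.4) with 1-NPN. Odorants at 2-20 µM then competed against 2.0 µM protein plus 2.0 µM 1-NPN for 2 min, with excitation at 337 nm and emission recorded over 390-490 nm. IC50 values were converted to Ki via Ki = IC50/(1 + [1-NPN]/K1-NPN).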

SfurOBP1 = SfurOBP1 (Sogatella furcifera, UniProt V5T8N5); test: biochemical; format: binding; conditions: for Fluorescence competitive binding assay, fluorescence intensity: OBP1, three replicate columns
Chain of SfurOBP1 (V5T8N5 entry or part of it): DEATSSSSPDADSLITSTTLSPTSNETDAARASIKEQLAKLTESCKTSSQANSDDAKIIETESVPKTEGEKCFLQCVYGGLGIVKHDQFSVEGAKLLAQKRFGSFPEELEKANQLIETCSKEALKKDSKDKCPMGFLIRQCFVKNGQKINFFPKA
Method in brief: as §1

SfurOBP3 = SfurOBP3 (Sogatella furcifera, UniProt V5T818); test: biochemical; format: binding; conditions: for Fluorescence competitive binding assay, fluorescence intensity: OBP3, three replicate columns
Chain of SfurOBP3 (V5T818 entry or part of it): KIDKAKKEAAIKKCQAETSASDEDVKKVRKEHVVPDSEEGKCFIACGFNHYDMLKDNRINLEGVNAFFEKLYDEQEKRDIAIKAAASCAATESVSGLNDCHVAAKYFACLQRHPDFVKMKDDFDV
Method in brief: as §1

SfurOBP11 = SfurOBP11 (Sogatella furcifera, UniProt V5T6E3); test: biochemical; format: binding
Chain of SfurOBP11 (V5T6E3 entry or part of it): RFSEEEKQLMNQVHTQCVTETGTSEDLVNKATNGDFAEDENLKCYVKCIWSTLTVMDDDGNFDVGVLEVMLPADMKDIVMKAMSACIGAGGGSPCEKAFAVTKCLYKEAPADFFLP
Method in brief: as §1

S. furcifera adults = test: Y-tube olfactometer behavioral trials; format: in vivo, Sogatella furcifera; conditions: odorant 50 µL/L vs hexane
Description: To test the effect of the rice odorants on the behavior of S. furcifera adults, a glass Y-tube olfactometer (inner diameter 2.0 cm, stem 13 cm, arms 10 cm, angle of arms 60°) according to the previously described ([Wang et al., 2014b]) was employed. An airtight cubic box (70 by 45 by 30 cm) was used to position Y-tube, and the Y-tube was lighted by a 30-W filament lamp 25 cm above it. Air that filtered through activated charcoal and humidified with doubly distilled water was pumped in both arms at a flow rate of 300 mL/min. Two filter paper strips (10 by 1 cm) containing 100 µL odorant source (50 µL/L) and 100 µL control hexane were placed in two holding chambers in the front of the olfactometer, respectively. A S. furcifera adult (2 days after emergence, starved for 0.5 h) was randomly chosen and placed in the stem of the Y-tube. Each insect was given 10 min to choose between the two arms of the Y-tube, the choice was noted if the planthopper reached one-half of the arms’ lengths and stayed in the arm for more than 1 min. Besides, S. furcifera was considered as having no orientation preference. Forty-five individuals were used for each compound, each insect used only once. And the dual-choice experiment was done in an environmentally controlled room (25 ± 1 °C and 50% RH). A Chi-squared test was used to analyze the behavioral assay data by using SPSS19.0 (SPSS Inc., Chicago, IL, USA) software.

Chain of SfurOBP2 (V5T759 entry or part of it): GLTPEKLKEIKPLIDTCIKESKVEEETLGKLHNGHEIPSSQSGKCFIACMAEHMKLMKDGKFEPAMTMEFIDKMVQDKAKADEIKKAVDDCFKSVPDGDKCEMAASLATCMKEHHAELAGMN

CC(=O)/C=C/C1=C(C)CCCC1(C)C [β-Ionone]
pIC50 (SfurOBP2): 4.70 | Fluorescence competitive binding assay, OBP2 (raw fluorescence reading) (SfurOBP2; ligand concentration 2 (unit not given), replicate column 1 of 3): 20663 | Fluorescence competitive binding assay, OBP2 (raw fluorescence reading) (SfurOBP2; ligand concentration 2 (unit not given), replicate column 2 of 3): 19168 | Fluorescence competitive binding assay, OBP2 (raw fluorescence reading) (SfurOBP2; ligand concentration 2 (unit not given), replicate column 3 of 3): 19828 | Fluorescence competitive binding assay, OBP2 (raw fluorescence reading) (SfurOBP2; ligand concentration 4 (unit not given), replicate column 1 of 3): 20326 | Fluorescence competitive binding assay, OBP2 (raw fluorescence reading) (SfurOBP2; ligand concentration 4 (unit not given), replicate column 2 of 3): 19347 | Fluorescence competitive binding assay, OBP2 (raw fluorescence reading) (SfurOBP2; ligand concentration 4 (unit not given), replicate column 3 of 3): 18863 | Fluorescence competitive binding assay, OBP2 (raw fluorescence reading) (SfurOBP2; ligand concentration 6 (unit not given), replicate column 1 of 3): 19895 | Fluorescence competitive binding assay, OBP2 (raw fluorescence reading) (SfurOBP2; ligand concentration 6 (unit not given), replicate column 2 of 3): 18583 | Fluorescence competitive binding assay, OBP2 (raw fluorescence reading) (SfurOBP2; ligand concentration 6 (unit not given), replicate column 3 of 3): 19617 | Fluorescence competitive binding assay, OBP2 (raw fluorescence reading) (SfurOBP2; ligand concentration 8 (unit not given), replicate column 1 of 3): 17627 | Fluorescence competitive binding assay, OBP2 (raw fluorescence reading) (SfurOBP2; ligand concentration 8 (unit not given), replicate column 2 of 3): 19078 | Fluorescence competitive binding assay, OBP2 (raw fluorescence reading) (SfurOBP2; ligand concentration 8 (unit not given), replicate column 3 of 3): 16731 | Fluorescence competitive binding assay, OBP2 (raw fluorescence reading) (SfurOBP2; ligand concentration 10 (unit not given), replicate column 1 of 3): 16901 | Fluorescence competitive binding assay, OBP2 (raw fluorescence reading) (SfurOBP2; ligand concentration 10 (unit not given), replicate column 2 of 3): 16412 | Fluorescence competitive binding assay, OBP2 (raw fluorescence reading) (SfurOBP2; ligand concentration 10 (unit not given), replicate column 3 of 3): 15901 | Fluorescence competitive binding assay, OBP2 (raw fluorescence reading) (SfurOBP2; ligand concentration 12 (unit not given), replicate column 1 of 3): 15640 | Fluorescence competitive binding assay, OBP2 (raw fluorescence reading) (SfurOBP2; ligand concentration 12 (unit not given), replicate column 2 of 3): 15758 | Fluorescence competitive binding assay, OBP2 (raw fluorescence reading) (SfurOBP2; ligand concentration 12 (unit not given), replicate column 3 of 3): 15363 | Fluorescence competitive binding assay, OBP2 (raw fluorescence reading) (SfurOBP2; ligand concentration 14 (unit not given), replicate column 1 of 3): 13711 | Fluorescence competitive binding assay, OBP2 (raw fluorescence reading) (SfurOBP2; ligand concentration 14 (unit not given), replicate column 2 of 3): 13915 | Fluorescence competitive binding assay, OBP2 (raw fluorescence reading) (SfurOBP2; ligand concentration 14 (unit not given), replicate column 3 of 3): 13962 | Fluorescence competitive binding assay, OBP2 (raw fluorescence reading) (SfurOBP2; ligand concentration 16 (unit not given), replicate column 1 of 3): 12366 | Fluorescence competitive binding assay, OBP2 (raw fluorescence reading) (SfurOBP2; ligand concentration 16 (unit not given), replicate column 2 of 3): 12873 | Fluorescence competitive binding assay, OBP2 (raw fluorescence reading) (SfurOBP2; ligand concentration 16 (unit not given), replicate column 3 of 3): 12910 | Fluorescence competitive binding assay, OBP2 (raw fluorescence reading) (SfurOBP2; ligand concentration 18 (unit not given), replicate column 1 of 3): 12338 | Fluorescence competitive binding assay, OBP2 (raw fluorescence reading) (SfurOBP2; ligand concentration 18 (unit not given), replicate column 2 of 3): 12028 | Fluorescence competitive binding assay, OBP2 (raw fluorescence reading) (SfurOBP2; ligand concentration 18 (unit not given), replicate column 3 of 3): 11737 | Fluorescence competitive binding assay, OBP2 (raw fluorescence reading) (SfurOBP2; ligand concentration 20 (unit not given), replicate column 1 of 3): 11557 | Fluorescence competitive binding assay, OBP2 (raw fluorescence reading) (SfurOBP2; ligand concentration 20 (unit not given), replicate column 2 of 3): 10983 | Fluorescence competitive binding assay, OBP2 (raw fluorescence reading) (SfurOBP2; ligand concentration 20 (unit not given), replicate column 3 of 3): 11423 | pIC50 (SfurOBP1): < 4.70 | Fluorescence competitive binding assay, fluorescence intensity (SfurOBP1; ligand concentration 2 (μM)): 7051 and 7963 and 8084 | Fluorescence competitive binding assay, fluorescence intensity (SfurOBP1; ligand concentration 4 (μM)): 8179 and 8456 and 7621 | Fluorescence competitive binding assay, fluorescence intensity (SfurOBP1; ligand concentration 6 (μM)): 7891 and 8214 and 10941 | Fluorescence competitive binding assay, fluorescence intensity (SfurOBP1; ligand concentration 8 (μM)): 7486 and 8333 and 7729 | Fluorescence competitive binding assay, fluorescence intensity (SfurOBP1; ligand concentration 10 (μM)): 7166 and 7631 and 8078 | Fluorescence competitive binding assay, fluorescence intensity (SfurOBP1; ligand concentration 12 (μM)): 13786 and 8045 and 7592 | Fluorescence competitive binding assay, fluorescence intensity (SfurOBP1; ligand concentration 14 (μM)): 7676 and 7139 and 7314 | Fluorescence competitive binding assay, fluorescence intensity (SfurOBP1; ligand concentration 16 (μM)): 6374 and 6355 and 6393 | Fluorescence competitive binding assay, fluorescence intensity (SfurOBP1; ligand concentration 18 (μM)): 6677 and 6433 and 6722 | Fluorescence competitive binding assay, fluorescence intensity (SfurOBP1; ligand concentration 20 (μM)): 6744 and 6442 and 6578 | pIC50 (SfurOBP3): 4.92 | Fluorescence competitive binding assay, fluorescence intensity (SfurOBP3; ligand concentration 2): 49137 and 48472 and 49801 | Fluorescence competitive binding assay, fluorescence intensity (SfurOBP3; ligand concentration 4): 47017 and 46358 and 43965 | Fluorescence competitive binding assay, fluorescence intensity (SfurOBP3; ligand concentration 6): 39740 and 42626 and 39389 | Fluorescence competitive binding assay, fluorescence intensity (SfurOBP3; ligand concentration 8): 37430 and 36910 and 36009 | Fluorescence competitive binding assay, fluorescence intensity (SfurOBP3; ligand concentration 10): 35904 and 33157 and 32677 | Fluorescence competitive binding assay, fluorescence intensity (SfurOBP3; ligand concentration 12): 30694 and 33051 and 28374 | Fluorescence competitive binding assay, fluorescence intensity (SfurOBP3; ligand concentration 14): 26192 and 26407 and 26489 | Fluorescence competitive binding assay, fluorescence intensity (SfurOBP3; ligand concentration 16): 23097 and 23904 and 24653 | Fluorescence competitive binding assay, fluorescence intensity (SfurOBP3; ligand concentration 18): 23846 and 23655 and 23476 | Fluorescence competitive binding assay, fluorescence intensity (SfurOBP3; ligand concentration 20): 21994 and 24647 and 23321 | binding affinity to SfurOBP3 (in words) (SfurOBP3; SfurOBP3): high binding affinities | pIC50 (SfurOBP11): 4.70 | Fluorescence intensity, fluorescence competitive binding assay, OBP11 (SfurOBP11; ligand concentration 2, replicate 1): 28050 | Fluorescence intensity, fluorescence competitive binding assay, OBP11 (SfurOBP11; ligand concentration 2, replicate 2): 27736 | Fluorescence intensity, fluorescence competitive binding assay, OBP11 (SfurOBP11; ligand concentration 2, replicate 3): 27612 | Fluorescence intensity, fluorescence competitive binding assay, OBP11 (SfurOBP11; ligand concentration 4, replicate 1): 28634 | Fluorescence intensity, fluorescence competitive binding assay, OBP11 (SfurOBP11; ligand concentration 4, replicate 2): 28801 | Fluorescence intensity, fluorescence competitive binding assay, OBP11 (SfurOBP11; ligand concentration 4, replicate 3): 26168 | Fluorescence intensity, fluorescence competitive binding assay, OBP11 (SfurOBP11; ligand concentration 6, replicate 1): 26910 | Fluorescence intensity, fluorescence competitive binding assay, OBP11 (SfurOBP11; ligand concentration 6, replicate 2): 26403 | Fluorescence intensity, fluorescence competitive binding assay, OBP11 (SfurOBP11; ligand concentration 6, replicate 3): 26657 | Fluorescence intensity, fluorescence competitive binding assay, OBP11 (SfurOBP11; ligand concentration 8, replicate 1): 23184 | Fluorescence intensity, fluorescence competitive binding assay, OBP11 (SfurOBP11; ligand concentration 8, replicate 2): 24499 | Fluorescence intensity, fluorescence competitive binding assay, OBP11 (SfurOBP11; ligand concentration 8, replicate 3): 24103 | Fluorescence intensity, fluorescence competitive binding assay, OBP11 (SfurOBP11; ligand concentration 10, replicate 1): 21871 | Fluorescence intensity, fluorescence competitive binding assay, OBP11 (SfurOBP11; ligand concentration 10, replicate 2): 21831 | Fluorescence intensity, fluorescence competitive binding assay, OBP11 (SfurOBP11; ligand concentration 10, replicate 3): 22447 | Fluorescence intensity, fluorescence competitive binding assay, OBP11 (SfurOBP11; ligand concentration 12, replicate 1): 20048 | Fluorescence intensity, fluorescence competitive binding assay, OBP11 (SfurOBP11; ligand concentration 12, replicate 2): 20727 | Fluorescence intensity, fluorescence competitive binding assay, OBP11 (SfurOBP11; ligand concentration 12, replicate 3): 21593 | Fluorescence intensity, fluorescence competitive binding assay, OBP11 (SfurOBP11; ligand concentration 14, replicate 1): 17047 | Fluorescence intensity, fluorescence competitive binding assay, OBP11 (SfurOBP11; ligand concentration 14, replicate 2): 18839 | Fluorescence intensity, fluorescence competitive binding assay, OBP11 (SfurOBP11; ligand concentration 14, replicate 3): 19615 | Fluorescence intensity, fluorescence competitive binding assay, OBP11 (SfurOBP11; ligand concentration 16, replicate 1): 15254 | Fluorescence intensity, fluorescence competitive binding assay, OBP11 (SfurOBP11; ligand concentration 16, replicate 2): 16765 | Fluorescence intensity, fluorescence competitive binding assay, OBP11 (SfurOBP11; ligand concentration 16, replicate 3): 16613 | Fluorescence intensity, fluorescence competitive binding assay, OBP11 (SfurOBP11; ligand concentration 18, replicate 1): 17103 | Fluorescence intensity, fluorescence competitive binding assay, OBP11 (SfurOBP11; ligand concentration 18, replicate 2): 17364 | Fluorescence intensity, fluorescence competitive binding assay, OBP11 (SfurOBP11; ligand concentration 18, replicate 3): 18167 | Fluorescence intensity, fluorescence competitive binding assay, OBP11 (SfurOBP11; ligand concentration 20, replicate 1): 16580 | Fluorescence intensity, fluorescence competitive binding assay, OBP11 (SfurOBP11; ligand concentration 20, replicate 2): 17841 | Fluorescence intensity, fluorescence competitive binding assay, OBP11 (SfurOBP11; ligand concentration 20, replicate 3): 17555 | behavioral response of S. furcifera (in words) (S. furcifera adults): strongly attracted | number of insects choosing hexane arm (S. furcifera adults; adults): 18 | number of insects choosing volatilies arm (S. furcifera adults; adults): 10 | number of insects failed (no choice) (S. furcifera adults; adults): 12
